Results reported in patent US6586460B1, “Heteroarotinoids containing urea or thiourea linker” (The Board of Regents for Oklahoma State University, priority 2001, dated 2003).

How the values were obtained:
[1] = test system: C-33A; test: Growth inhibition assay (SRB); format: cell-based; details: 10 μM, three-day treatment, Table I
Description: (§1) To illustrate the general and useful biological activity of the heteroarotinoids described in this invention, selected compounds were screened for ability to inhibit the growth of three ovarian cancerous cell lines, namely Caov, SKOV, and OVCAR cell lines, three cervical cell lines (Cervix HPV-Wt p53, Cervix HPV-Mut p53, and Cervix HPV-Mut p53), and one vulvar (Vulvar HPV-Mut p53) cell line as shown in Tables I-III. The cell lines and the technology have been previously described [See Journal of Medicinal Chemistry, 1999, Vol. 42, pages 3602-3614 in an article entitled “Synthesis, Structure-Activity Relationships, and RAR γ-Ligand Interactions of Nitrogen Heteroarotinoids” by A. Dhar, S. Liu, J. Klucik, K. D. Berlin, M. M. Madler, S. Lu, R. T. Ivey, D. Zacheis, C. W. Brown, E. C. Nelson, P. J. Birckbichler, and D. M. Benbrook], but the general technique was slightly modified. Cultures of the cancerous cells were plated in volumes of 150 μL in 96-well microtiter plates at concentrations of 2000-4000 cells/well, depending upon the cell line used. Retinoids were added the next day at 4× the concentrations in 50 μL of media resulting in 1, 2, 3, 4, 5, 7, and 10 μM final concentrations of each retinoid. Control cultures were treated with the same volume of DMSO. After 3 days of treatment, the cell density in each well was determined by fixing the cells in trichloroacetic acid followed by staining the cytoplasmic proteins with sulforhoamine B (SRB). After rinsing, the SRB was solubilized in Tris-HCl, and the optical density of each culture was determined with a MR600 microtiter plate reader. Each experiment was performed in triplicate, and the three values of each treatment were averaged. The average OD of the treated cultures was divided by that of the control cultures treated with solvent alone. To determine the percent growth inhibition, this ratio was subtracted from 1 and multiplied by 100. Tables I, II, and III contain representative examples of the inhibition of growth by the inventive heteroarotinoids of the cancerous cell lines investigated at two independent concentrations (1 and 10 μM). As standards for comparison purposes, trans-retinoic acid (t-RA), 9-cis-retinoic acid (9-c-RA), 13-cis-retinoic acid (13-c-RA), and […] (4-HPR) were added in parallel experiments along with the heteroarotinoids and with dimethyl sulfoxide (DMSO) as the solvent. For convenience, the data in Tables II and III are duplicated and ranked according to tumor type.

[2] = test system: CAOV-3; test: Growth inhibition assay (SRB); format: cell-based; details: 10 μM, three-day treatment, Table I
Description: as §1

[3] = test system: HT-3; test: Growth inhibition assay (SRB); format: cell-based; details: 10 μM, three-day treatment, Table I
Description: as §1

[4] = test system: SK-OV-3; test: Growth inhibition assay (SRB); format: cell-based; details: 10 μM, three-day treatment, Table I
Description: as §1

[5] = test system: SW962; test: Growth inhibition assay (SRB); format: cell-based; details: 10 μM, three-day treatment, Table I
Description: as §1

[6] = test system: SiHa; test: Growth inhibition assay (SRB); format: cell-based; details: 10 μM, three-day treatment, Table I
Description: as §1

[7] = test system: OVCAR-3; test: Growth inhibition assay (SRB); format: cell-based, human; details: 10 μM, three-day treatment, Table I
Description: as §1

[8] = test system: ovarian carcinoma cell line OVCAR-3; test: Apoptosis in organotypic culture, TUNNEL assay; format: cell-based, human; details: 1 μM; for % APOPTOSIS of OVCAR-3 cells: two weeks, organotypic culture, TUNNEL assay; for inducing apoptosis in the OVCAR-3 cell line, comparison in words: Table V
Procedure: In another experiment, the ovarian carcinoma cell line OVCAR-3 was grown in organotypic culture. After one week, the cultures were treated with 1 μM solution of heteroarotinoids 11, 12, and 13, or with the same volume of DMSO (solvent), for two weeks. Both 9-c-RA and 4-HPR were used as controls. At the end of the time, the cultures were fixed in sectioned, and stained with the TUNNEL assay to detect apoptosing cells. An experienced pathologist quantitated the percent of apoptosing cells by light microscopic examination.

[9] = test system: OVCAR-3 cells; test: In vivo tumor xenograph; design: species or system athymic nu/nu mice; details: 10 mg/kg/day p.o.; for tumor growth (average tumor volume, FIG. 1): 5 days/week, beginning 35 days after implantation; for sizes of the tumors compared with control group treated with sesame oil alone: after 15 days of treatment, t-test P<0.05
Procedure: Thirty female athymic nu/nu mice (Charles Rivers Laboratories, Wilmington, Mass.) were housed in a laminar flow room under sterile conditions at 83-85° F. The mice were quarantined for one week prior to the beginning of the study and were allowed access to autoclaved food (Purina 5001 mouse/rat sterilized diet, St. Louis, Mo.) and water ad libitum. Then OVCAR-3 cells in log phase growth were harvested by trypsinization, resuspended in RPMI culture medium, and centrifuged at 3000 rpm for 10 min. The pellets were then resuspended in RPMI culture medium at a concentration of 7×10^6 cells/mL before implantation into mice. Animals were injected with 3.5×10^6 cells into right scapular region with a 24-gauge needle/1 mL tuberculin syringe (Becton Dickinson, Rutherford, N.J.). Twenty four hours after tumor implantation, animals were randomized into four treatment groups of 5 animals each. Retinoids were administered daily p.o. beginning 35 days after tumor implantation with a 20-gauge intragastric feeding tube (Popper & Sons, New Hyde Park, N.Y.), 5 days/week, at doses of 10 mg/kg/day in 0.1 mL of super refined sesame oil (Corda, Inc., Parisppany, N.J.). Tumors were measured with calipers weekly, and tumor volumes were calculated using the formula: volume=length×width×heigth. Animal weights and clinical signs of overall health status and cutaneous toxicities were recorded weekly. Agents 11 and 13 were evaluated against the 4-HPR standard. FIG. 1 illustrates the overall changes in tumor volumes found in the mice in these experiments. […] The animals were monitored daily for signs of toxicity, such as skin eczema and bone fractures, but none were observed. This is added evidence that these heteroarotinoids are strong candidates for cancer chemotherapy.

[10] = Liver toxicity (plasma ALT activity, liver sections); format: in vivo; details: 10 mg/kg/day p.o.; for liver toxicity (ALT activities, liver sections assessed by pathologist): mice
Description: Toxic compounds can induce livers to release enzymes called serum transaminases, such as alanine aminotransferase (ALT). The assay for ALT is the most universally accepted clinical laboratory marker used to evaluate hepatic toxicity induced by pharmaceuticals [See “Serum Transferase Elevations as Indicators or Hepatic Injury Following the Administration of Drugs”, Reg. Tox. Pharm., volume 27, 1998, pp 119-130, by D. E. Amacher]. At the end of the treatment period, blood was drawn from each animal. Plasma was separated by centrifugation and stored at −70° C. The activity of ALT was determined in aliquots of plasma by standard spectrophotometric enzymatic techniques which were based upon the reduction of pyruvate by lactate dehydrogenase [See “Aged Mice are Resistant to the Hepatotoxic Effects of Endotoxin and Galactosamine” in Exp. Mol. Pathology, volume 59, 1993, pp 27-37]. The method measures the disappearance of NADH from time of incubation at 37° C. The activities have been expressed in μm/Liter/min (Table VI). Two different amounts of plasma were utilized in each assay to assure the measurement of the maximum rate.
There were no statistically significant differences between the ALT activities in the different treatment groups (Table VI, t-test: P>0.05). All numbers were in the normal range (63 to 307 μm/Liter/Min) of ALT values for the species of mouse utilized. All liver sections were assessed by an experienced pathologist in a blinded manner. The degree of necrosis was very mild in all animals.

Row | SMILES | Percentage growth inhibition, C-33A (Cervix HPV− Mut p53) [1] [%] | Percentage growth inhibition, CAOV-3 (Ovarian HPV− Mut p53) [2] [%] | Percentage growth inhibition, HT-3 (Cervix HPV− Mut p53) [3] [%] | Percentage growth inhibition, SK-OV-3 (Ovarian HPV− Null p53) [4] [%] | Percentage growth inhibition, SW962 (Vulva HPV− Mut p53) [5] [%] | Percentage growth inhibition, SiHa (Cervix HPV+ Wt p53) [6] [%] | Percentage growth inhibition, OVCAR-3 (Ovarian HPV− Mut p53) [7] [%] | % APOPTOSIS of OVCAR-3 cells [8] [%] | inducing apoptosis in the OVCAR-3 cell line, comparison in words [8] | tumor growth (average tumor volume, FIG. 1) [9] | sizes of the tumors compared with control group treated with sesame oil alone [9] | liver toxicity (ALT activities, liver sections assessed by pathologist) [10] | ALT ACTIVITY ([10]; plasma of mice at end of treatment period) [μm/Liter/Min]
1 | CC1(C)CC(C)(C)c2cc(NC(=S)Nc3ccc([N+](=O)[O-])cc3)ccc2S1 [heteroarotinoid 11] | 87 | 80 | 82 | 100 | 98 | 72 | 94 | 95 | as effective as 4-HPR | inhibited tumor growth | significantly smaller | do not appear to induce significant liver toxicity | 118.5 ± 153.4
2 | CCOC(=O)c1ccc(NC(=O)Nc2ccc3c(c2)C(C)(C)CC(C)(C)S3)cc1 [heteroarotinoid 13] | 76 | 98 | 85 | 94 | 96 | 66 | 77 | 80 | as effective as 4-HPR | inhibited tumor growth | significantly smaller | do not appear to induce significant liver toxicity | –
